Among the data in patent US10294262B2, “7-deazapurine nucleosides for therapeutic uses” (Institute of Organic Chemistry and Biochemistry ASCR, V.V.I., priority 2009, dated 2019) are CC50 and melting point values, retold here.

Like-named read-outs stand apart in the source and are kept apart here. Where only a bound is given, the exact number is not on record here.

The test system of one series is HCT15. The experiment in a line: Test A: Cytostatic cell culture assay (CC50), SRB, solid tumor cell lines. It counts as cell-based. The settings on record: Homo sapiens, HCT-15, 120 h, read-out: CC50 Colon HCT15. The method, then:
(§1) Gemcitabine is obtained from Moravek Biochemicals (Brea, Calif.)
(§2) • 1. […] Fix one plate of each cell line with TCA. […] Discard TCA from the plates by flicking them gently. […] Store the plates at room temperature. These plates represent cell counts on day zero. • 4. […] Add 50 μL of the diluted compounds per well. […] Fix the plates with TCA. […] Discard TCA from the plates by flicking them gently. […] Leave at room temperature for 30 minutes. • 9. Flick the plates gently to discard SRB.

The next series relates to HS578. Described as above. The settings on record: Homo sapiens, Hs578, 120 h, read-out: CC50 Breast HS578. In kind it is cell-based. The method, then:
as §1, §2

Another series has as its system Du145. The series is described as above. The settings on record: Homo sapiens, DU-145, 120 h, read-out: CC50 Prostate Du145. It counts as cell-based. The method, then:
as §1, §2

The next series deals with NCI H23. Described as above. In kind it is cell-based. The settings on record: Homo sapiens, NCI-H23, 120 h, read-out: CC50 Lung NCI H23. The method, then:
as §1, §2

The subject of the next series is PC3. Described as above. The settings on record: Homo sapiens, PC-3, 120 h, read-out: CC50 Prostate PC3. In kind it is cell-based. The protocol: as §1, §2
The test system of a further series is HCT116. Described as above. In kind it is cell-based. The settings on record: Homo sapiens, HCT-116, 120 h, read-out: CC50 Colon HCT116. The protocol: as §1, §2
Series [1] has as its system MT-4 T-lymphoid cell line. The experiment in a line: Test B: Cytostatic cell culture assay (CC50), CellTiter Glo, lymphoid tumor cell lines. The settings on record: Homo sapiens, MT4, 120 h, read-out: CC50 T-lymphoid MT-4.
Experimental: Test B: Cytostatic Cell Culture Assay (CC50) for Lymphoid Tumor Cell Lines
This test is typically performed with cell lines that are derived from hematological tumors and grow in suspension. An example of such cell line is human MT-4 T-lymphoid cell line used for the determination of cytostatic activity of tested compounds. […] Cells were passaged in suspension twice a week and maintained at densities below 500,000 cells/mL. For CC50 determination, cells were seeded into 384-well plates at 2,000 cells/well in 20 μL of culture medium. Compounds were serially diluted in culture medium and added in triplicate to a final assay volume of 40 μL/well. Plates were incubated for 5 days with tested compounds. At the end of incubation, cell viability was determined by addition of 40 μL of CellTiter Glo reagent followed by a luminescence read-out.
Data analysis and CC50 value calculations were done using GraphPad Prism software (GraphPad Software, San Diego, Calif.) by applying nonlinear regression.
Another series relates to human tumor cell lines. The experiment in a line: Tests A and B, all tumor cell lines together. In kind it is cell-based. The settings on record: read-out: CC50 Geometric mean all. The protocol: as §2
Plates were incubated for 5 days with tested compounds.

For another series, the system named is A549. Briefly: Test A: Cytostatic cell culture assay (CC50), SRB, solid tumor cell lines. The settings on record: Homo sapiens, A549, 120 h, read-out: CC50 Lung A549. From the text:
Test A: Cytostatic Cell Culture Assay (CC50) for Solid Tumor Cell Lines
This assay is based on quantification of cell mass determination by a colorimetric detection of the cell associated proteins. The assay relies on the ability of sulforhodamine B (SRB) to bind to protein components of cells that have been fixed to tissue-culture plates by trichloroacetic acid (TCA). SRB is a bright-pink aminoxanthene dye with two sulfonic groups that bind to basic amino-acid residues under mild acidic conditions, and dissociate under basic conditions. As the binding of SRB is stochiometric, the amount of dye extracted from stained cells is directly proportional to the cell mass.
Cell lines: All cell lines are obtained from ATCC (Manassas, Va.). Cultivation media containing Glutamax, and trypsin are purchased from Invitrogen (Carlsbad, Calif.). Doxorubicin, Tubercidin, Clofarabine, TCA and SRB are from Sigma-Aldrich (St. Louis, Mo.). Gemcitabine is obtained from Moravek Biochemicals (Brea, Calif.)
• 1. Trypsinize the sub-confluent cells, count them, and adjust the cell concentrations according to the cell counts listed in Table 1. • 2. Distribute the cells into the 96-well plates in 150 μL of media. Incubate the plates overnight in humidified CO2 incubator at 37° C. • 3. Fix one plate of each cell line with TCA. Discard the cultivation media from the plates by flicking them gently and add 100 μL cold 10% (vol/vol) TCA to each well. Incubate the plates at 4 degree refrigerator for 1 hour. Discard TCA from the plates by flicking them gently. Rinse plates four times in a washing basin containing tap water. Store the plates at room temperature. These plates represent cell counts on day zero. • 4. Prepare a set of medium solutions containing various concentrations of tested compounds by making 5-fold serial dilutions in 96-well plate. Add 50 μL of the diluted compounds per well. Include controls with untreated cells and cells treated with doxorubicin, tubercidin, clofarabine and/or gemcitabine. • 5. Incubate the plates for 5 days at 37° C. • 6. Fix the plates with TCA. Discard the cultivation media from the plates by flicking them gently and add 100 μL cold 10% (vol/vol) TCA to each well. Incubate the plates at 4 degree refrigerator for 1 hour. Discard TCA from the plates by flicking them gently. Rinse plates four times in a washing basin containing tap water. • 7. Remove excess water by tapping the plates face down, gently on a paper towel. Allow the plates to air-dry at room temperature. • 8. Add 100 μL of 0.057% SRB solution in 1% (vol/vol) acetic acid to each well of the plates fixed with TCA on day zero and five. Leave at room temperature for 30 minutes. • 9. Flick the plates gently to discard SRB. Rinse the plates four times with 1% (vol/vol) Acetic Acid. • 10. Store the plates at 37° incubator to facilitate faster drying. • 11. Once the plates are completely dry, add 200 μL of 10 mM Tris base solution (pH 10.5) to each well. Leave at room temperature for 30 minutes for SRB to solubilize. • 12. Measure the OD at 500 nm in a microplate reader. • 13. Calculate the percentage of cell-growth inhibition using the next formula: % of control cell growth=100×(ODsample−mean ODday0)/(ODneg control−mean ODday0). For CC50 determination, plot a dose-response curves between the compound concentration and percent of growth inhibition. CC50 values can be derived by fitting dose-response curves using sigmoidal dose response equation.

A further series deals with BT549. The description is as above. The settings on record: Homo sapiens, BT-549, 120 h, read-out: CC50 Breast BT549. It counts as cell-based. The protocol: as §1, §2
Where [2] appears, read: BT549 breast tumor cells, 5 days, SRB.

For the compound `Nc1nc(Cl)nc2c1ncn2[C@@H]1O[C@H](CO)[C@@H](O)[C@@H]1F` [Clofarabine, reference compound], the CC50 was determined as 180 nM with HCT15; 1240 nM in the series on HS578; 125 nM in the series with Du145; 40 nM with NCI H23; 63 nM in the series with PC3; 106 nM in the series with HCT116. Moreover, the CC50 in [1] was determined as 51 nM; in the series on human tumor cell lines, 116 nM; with A549 it was 86 nM.
For the compound `Nc1ncnc2c1c(-c1ccoc1)cn2[C@@H]1O[C@H](CO)[C@@H](O)[C@H]1O` [Compound 2h, 4-Amino-5-(furan-3-yl)-7-(β-D-ribofuranosyl)-7H-pyrrolo[2,3-d]pyrimidine], the CC50 stood at 21 nM in the series on HS578; 330 nM in the series on Du145; 198 nM in the series on NCI H23; 418 nM in the series with PC3; 15 nM with HCT116; 28 nM in the series with BT549 (setting [2]). The results for the CC50 (in [1]; with human tumor cell lines; with A549) were 170 nM, 78.1 nM and 34 nM, respectively.
With `Nc1ncnc2c1c(-c1ccsc1)cn2[C@@H]1O[C@H](CO)[C@@H](O)[C@H]1O` [Compound 2i, 4-Amino-7-(β-D-ribofuranosyl)-5-(thiophen-3-yl)-7H-pyrrolo[2,3-d]pyrimidine], the CC50 in the series on HS578 came out at 50 nM; in the series with Du145, 97 nM; in the series with NCI H23, 73 nM; with PC3, 1320 nM; with HCT116 it was 7 nM; in the series on BT549 (setting [2]) it was 28 nM. Also, the CC50 in [1] was 124 nM; in the series with human tumor cell lines, 60.7 nM; with A549, 16 nM.
For the compound `Nc1ncnc2c1c(-c1cc3ccccc3o1)cn2[C@@H]1O[C@H](CO)[C@@H](O)[C@H]1O` [Compound 2j, 4-Amino-5-(benzofuran-2-yl)-7-(β-D-ribofuranosyl)-7H-pyrrolo[2,3-d]pyrimidine], the CC50 in the series on HS578 was 6730 nM; in the series with NCI H23 it was 5400 nM; in the series on PC3, 6290 nM; with HCT116, 3740 nM; with BT549 it was above 10000 nM; in series [1], 4800 nM. The CC50 in the series on human tumor cell lines turned out to be 5540 nM; in the series on A549, 7020 nM.
In the case of `Nc1ncnc2c1c(-c1ccc[nH]1)cn2[C@@H]1O[C@H](CO)[C@@H](O)[C@H]1O` [Compound 2k, 4-Amino-5-(1H-pyrrol-2-yl)-7-(β-D-ribofuranosyl)-7H-pyrrolo[2,3-d]pyrimidine], the melting point was 205 to 207 °C. The CC50 with HS578 turned out to be 113 nM. Further, in the series with NCI H23, the CC50 worked out at 333 nM. In addition, the CC50 in the series on PC3 came out at 87.8 nM. In addition, the CC50 in the series with HCT116 is 65.2 nM. For the same compound, in the series with BT549 (setting [2]), the 50% cytotoxic concentration (CC50) turned out to be 129 nM. The CC50 in the series with human tumor cell lines is 128 nM. Moreover, the CC50 in the series on A549 turned out to be 160 nM.
Take `Nc1ncnc2c1c(-c1cc[nH]c1)cn2[C@@H]1O[C@H](CO)[C@@H](O)[C@H]1O` [Compound 2l, 4-Amino-5-(1H-pyrrol-3-yl)-7-(β-D-ribofuranosyl)-7H-pyrrolo[2,3-d]pyrimidine]: the CC50 in the series on HS578 came to 4.4 nM; in the series with NCI H23, 33 nM; with PC3, 29 nM; in the series on HCT116, 5.9 nM; in the series with BT549 (setting [2]), 8 nM; in series [1], 24 nM. Besides, the CC50 turned out to be 11.4 nM in the series with human tumor cell lines and 5.3 nM in the series on A549.
On to `Nc1ncnc2c1c(-c1cn[nH]c1)cn2[C@@H]1O[C@H](CO)[C@@H](O)[C@H]1O` [Compound 2m, 4-Amino-5-(1H-pyrazol-4-yl)-7-(β-D-ribofuranosyl)-7H-pyrrolo[2,3-d]pyrimidine], for which the CC50 with HS578 stood at 12 nM; in the series on NCI H23, 144 nM; in the series on PC3 it was 14 nM; in the series on HCT116, 970 nM; in the series on BT549 (setting [2]), 50 nM; in series [1], 110 nM. The CC50 in the series on human tumor cell lines was determined as 81.9 nM; with A549 it was 192 nM.
With `Nc1ncnc2c1c(-c1cc[nH]n1)cn2[C@@H]1O[C@H](CO)[C@@H](O)[C@H]1O` [Compound 2n, 4-Amino-5-(1H-pyrazol-3-yl)-7-(β-D-ribofuranosyl)-7H-pyrrolo[2,3-d]pyrimidine], the melting point is 135 °C. For the same compound, the CC50 in the series with HS578 was 8 nM. Also, the CC50 with NCI H23 was determined as 35 nM. Moreover, the CC50 with PC3 was found to be 15 nM. In addition, the CC50 with HCT116 stood at 18 nM. Besides, the CC50 in series [1] stood at 18 nM. For the same compound, the CC50 in the series with human tumor cell lines worked out at 17.1 nM.
In the case of `Nc1ncnc2c1c(-c1c[nH]nn1)cn2[C@@H]1O[C@H](CO)[C@@H](O)[C@H]1O` [Compound 2p, 4-Amino-7-(β-D-ribofuranosyl)-5-(1H-1,2,3-triazol-4-yl)-7H-pyrrolo[2,3-d]pyrimidine], the melting point was in the range of 286 to 288 °C. Also, in the series with HS578, the CC50 amounted to 3 nM. Moreover, in the series with NCI H23, the CC50 was 4 nM. Moreover, the CC50 in the series on PC3 is 5 nM. Further, the CC50 with HCT116 came to 4 nM. In addition, the CC50 in [1] was found to be 18 nM. The CC50 in the series on human tumor cell lines stood at 5.2 nM.
Consider `Nc1ncnc2c1c(-c1ncc[nH]1)cn2[C@@H]1O[C@H](CO)[C@@H](O)[C@H]1O` [Compound 2s, 4-Amino-5-(1H-imidazol-2-yl)-7-(β-D-ribofuranosyl)-7H-pyrrolo[2,3-d]pyrimidine], for which the melting point is 153 to 156 °C. Also, the CC50 in the series on HS578 came out at 1 nM. In the series with NCI H23, the 50% cytotoxic concentration (CC50) worked out at 6 nM. Also, the CC50 in the series with PC3 was determined as 1 nM. Besides, in the series on HCT116, the CC50 amounted to 2 nM. Besides, in [1], the CC50 was determined as 49 nM. Besides, the CC50 with human tumor cell lines amounted to 3.8 nM.
As for `C[C@@]1(O)[C@H](O)[C@@H](CO)O[C@H]1n1cc(-c2ccccc2)c2c(N)ncnc21` [Compound 7a, 4-Amino-7-(2-C-methyl-β-D-ribofuranosyl)-5-phenyl-7H-pyrrolo[2,3-d]pyrimidine], the melting point is 129 °C.
With `COc1ccc(-c2cn([C@@H]3O[C@H](CO)[C@@H](O)[C@@]3(C)O)c3ncnc(N)c23)cc1` [Compound 7b, 4-Amino-5-(4-methoxyphenyl)-7-(2-C-methyl-β-D-ribofuranosyl)-7H-pyrrolo[2,3-d]pyrimidine], the melting point was determined as 127 °C.
Consider `COc1cccc2c1C(=O)c1c(O)c3c(c(O)c1C2=O)C[C@@](O)(C(=O)CO)C[C@@H]3O[C@H]1C[C@H](N)[C@H](O)[C@H](C)O1` [Doxorubicine, reference compound], for which the CC50 turned out to be 6 nM in the series with HS578; 5 nM in the series on NCI H23; 21 nM in the series on PC3; 11 nM with HCT116; 10 nM in the series on BT549 (setting [2]); 10.1 nM with human tumor cell lines. In addition, the CC50 in the series with A549 is 16 nM.
